According to PubChem BioAssay (NCI):
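Briefly, cells in 96-well plates were exposed to five compound concentrations for 48 h, and endpoints were estimated by linear interpolation. The concentration for 50% growth inhibition is given as GI50. TGI denotes the concentration required for complete inhibition of growth.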

Assays:
Test in all cases: inhibition of tumour cell growth, NCI panel, 48 h
A498 renal = test system: A498 renal
ACHN renal = test system: ACHN renal
DLD-1 colon = test system: DLD-1 colon
HCT-116 colon = test system: HCT-116 colon
LXFL 529 NSCLC = test system: LXFL 529 NSCLC
OVCAR-3 ovarian = test system: OVCAR-3 ovarian
OVCAR-4 ovarian = test system: OVCAR-4 ovarian
SF-268 CNS = test system: SF-268 CNS
SK-MEL-2 melanoma = test system: SK-MEL-2 melanoma
SNB-75 CNS = test system: SNB-75 CNS

SMILES	TGI (A498 renal) [µM]	TGI (ACHN renal) [µM]	TGI (DLD-1 colon) [µM]	TGI (HCT-116 colon) [µM]	TGI (LXFL 529 NSCLC) [µM]	TGI (OVCAR-3 ovarian) [µM]	TGI (OVCAR-4 ovarian) [µM]	TGI (SF-268 CNS) [µM]	TGI (SK-MEL-2 melanoma) [µM]	TGI (SNB-75 CNS) [µM]	GI50 (A498 renal) [µM]	GI50 (DLD-1 colon) [µM]
COc1cc(CNc2nc3c(N)cc(C(F)(F)F)cc3nc2-c2ccccc2)cc(OC)c1OC	> 100	> 100	> 100	> 100	> 100	> 100	> 100	> 100	> 100	> 100		
CC(C)C1CO[C@]2(C)CCC(=O)N12 (some centres undefined)		> 100	> 100	> 100	> 100	> 100	> 100	> 100	> 100	> 100		
O=c1cc(-c2ccccn2)[nH]c2cccc(F)c12		> 100	> 100		> 100	> 100	> 100			> 100		
O=c1cccccc1[O-].O=c1cccccc1[O-].O=c1cccccc1[O-].[Eu+3]	> 100	> 100	> 100	76.7		48.1	> 100	> 100	> 100	79	78.4	24
CCCn1c(SCCSc2c3ccccc3c(-c3nc(F)nc(F)n3)n2CCC)c2ccccc2c1-c1nc(F)nc(F)n1		> 100	40.4	> 100	> 100	> 100	> 100	> 100	> 100	> 100		
CCOC(=O)NC(=O)c1cn(CCN2CCN(C(=O)CNC(=O)CNC(=O)Cn3cc(C(=O)NC(=O)OCC)c(=O)[nH]c3=O)CC2)c(=O)[nH]c1=O	> 100	> 100	> 100	> 100	> 100	> 100		> 100	> 100	> 100		
CC(C)/C=C1\CCC(CN2CCOCC2)C1=O (centres undefined)	> 51.3	32.3	8.86	23.4	8.24	32.7	40	52.5	35.6			
COc1cc(/C=C/c2ccc(C)cc2)cc(OC)c1OC		35.5	20.7	14.2	> 48.8	6.93	44.7	11.2	> 31.6	8.05		
C/C(CC(=O)Nc1cccc(Cl)c1C)=N\NC(N)=S	> 100		> 100	> 100	> 100	> 100		> 100	> 100	> 100		
COC1C(OC(=O)c2ccc(C)[nH]2)C(O)C(Oc2ccc3c(O)c(NC(=O)c4c[nH]c(C(=O)Nc5c(O)c6ccc(OC7OC(C)(C)C(OC)C(OC(=O)c8ccc(C)[nH]8)C7O)c(C)c6oc5=O)c4C)c(=O)oc3c2C)OC1(C)C (centres undefined)	4.8	9.43	6.08		8.03	41.1	6.82	7.44	4.42	4.85		
C#CC1(O)CCC2C3CCc4cc(Oc5nc(F)nc(-c6c7ccccc7c7n6CCS7)n5)ccc4C3CC[C@@]21C (some centres undefined)		> 100	> 100	25.8	57.3	32.2	68.6	> 100	23.9	49.1		
[N-]=[N+]=NC(c1cn(C2CC(O)C(CO)O2)c(=O)[nH]c1=O)C(Cl)Br (centres undefined)		> 100	> 100	> 100	> 100				> 100	> 100		
